From patent US20260159520A1, “HETEROBIFUNCTIONAL COMPOUNDS AND METHODS OF TREATING DISEASE” (Halda Therapeutics OpCo, Inc., priority 2022, published 2026)

How the values were obtained:
CDK2 = biological target: T1, CDK2 (Homo sapiens, UniProt P24941); assay: KdELECT binding assay, CDK2; details: CDK2, Table 8
T1 construct: made in house; host or cells: E. coli BL21-derived host (T7 phage) or HEK-293 ('BEK-293' [sic])
Experimental: Compounds were tested using a KdELECT. Kinase-tagged T7 phage strains were prepared in an E. coli host derived from the BL21 strain. E. coli were grown to log-phase and infected with T7 phage and incubated with shaking at 32° C. until lysis. The lysates were centrifuged and filtered to remove cell debris. The remaining kinases were produced in BEK-293 cells and subsequently tagged with DNA for qPCR detection. Streptavidin-coated magnetic beads were treated with biotinylated small molecule ligands for 30 minutes at room temperature to generate affinity resins for kinase assays. The liganded beads were blocked with excess biotin and washed with blocking buffer (SeaBlock (Pierce), 1% BSA, 0.05% Tween 20, 1 mM DTT) to remove unbound ligand and to reduce non-specific binding. Binding reactions were assembled by combining kinases, liganded affinity beads, and test compounds in 1× binding buffer (20% SeaBlock, 0.17×PBS, 0.05% Tween 20, 6 mM DTT). Test compounds were prepared as 111× stocks in 100% DMSO. Kd values were determined using an 11-point 3-fold compound dilution series with three DMSO control points. All compounds for Kd measurements are distributed by acoustic transfer (non-contact dispensing) in 100% DMSO. The compounds were then diluted directly into the assays such that the final concentration of DMSO was 0.9%. […] The kinase concentration in the eluates was measured by qPCR.

CDK1 = biological target: T2, CDK1 (Homo sapiens, UniProt P06493); assay: KdELECT binding assay, CDK1; details: CDK1, Table 9
T2 construct: made in house; host or cells: E. coli BL21-derived host (T7 phage) or HEK-293 ('BEK-293' [sic])
T2 sequence (P06493 whole entry): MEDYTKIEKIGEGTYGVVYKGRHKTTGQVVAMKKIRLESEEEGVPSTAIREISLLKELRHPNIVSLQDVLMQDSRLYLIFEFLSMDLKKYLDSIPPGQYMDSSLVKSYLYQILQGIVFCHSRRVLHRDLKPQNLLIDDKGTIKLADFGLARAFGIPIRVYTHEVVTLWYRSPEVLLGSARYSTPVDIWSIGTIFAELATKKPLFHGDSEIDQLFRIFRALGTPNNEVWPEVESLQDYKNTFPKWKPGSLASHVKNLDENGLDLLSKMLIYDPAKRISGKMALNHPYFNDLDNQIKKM
Experimental: Compounds were tested using a KdELECT. Kinase-tagged T7 phage strains were prepared in an E. coli host derived from the BL21 strain. E. coli were grown to log-phase and infected with T7 phage and incubated with shaking at 32° C. until lysis. The lysates were centrifuged and filtered to remove cell debris. The remaining kinases were produced in BEK-293 cells and subsequently tagged with DNA for qPCR detection. Streptavidin-coated magnetic beads were treated with biotinylated small molecule ligands for 30 minutes at room temperature to generate affinity resins for kinase assays. The liganded beads were blocked with excess biotin and washed with blocking buffer (SeaBlock (Pierce), 1% BSA, 0.05% Tween 20, 1 mM DTT) to remove unbound ligand and to reduce non-specific binding. Binding reactions were assembled by combining kinases, liganded affinity beads, and test compounds in 1× binding buffer (20% SeaBlock, 0.17×PBS, 0.05% Tween 20, 6 mM DTT). Test compounds were prepared as 111× stocks in 100% DMSO. Kd values were determined using an 11-point 3-fold compound dilution series with three DMSO control points. All compounds for Kd measurements are distributed by acoustic transfer (non-contact dispensing) in 100% DMSO. The compounds were then diluted directly into the assays such that the final concentration of DMSO was 0.9%. All reactions performed in polypropylene 384-well plate. Each was a final volume of 0.02 mL. The assay plates were incubated at room temperature with shaking for 1 hour and the affinity beads were washed with wash buffer (lx PBS, 0.05% Tween 20). The beads were then re-suspended in elution buffer (lx PBS, 0.05% Tween 20, 0.5 μM nonbiotinylated affinity ligand) and incubated at room temperature with shaking for 30 minutes. The kinase concentration in the eluates was measured by qPCR.

SMILES | Kd (CDK2) [nM] | Kd (CDK1) [nM]
CCc1cnn2c(NCc3ccc(OCCOCCOCCOC4CCN(c5ncc(C(=O)N[C@H]6C(C)(C)[C@H](Oc7ccc(C#N)c(Cl)c7)C6(C)C)cn5)CC4)nc3)cc(N3CCCC[C@H]3CCO)nc12 [Compound I-8] | > 2500 | > 2500
CCc1cnn2c(NCc3ccc(OCCN4CCN(CC5CCN(c6ncc(C(=O)N[C@H]7C(C)(C)[C@H](Oc8ccc(C#N)c(Cl)c8)C7(C)C)cn6)CC5)CC4)nc3)cc(N3CCCC[C@H]3CCO)nc12 [Compound I-41] | – | > 2500
CCc1cnn2c(NCc3ccc(COCCN4CCN(CC5CCN(c6ncc(C(=O)N[C@H]7C(C)(C)[C@H](Oc8ccc(C#N)c(Cl)c8)C7(C)C)cn6)CC5)CC4)nc3)cc(N3CCCC[C@H]3CCO)nc12 [Compound I-42] | – | > 2500
CCc1cnn2c(NCc3ccc(OCC4CCN(CC5CCN(c6ncc(C(=O)N[C@H]7C(C)(C)[C@H](Oc8ccc(C#N)c(Cl)c8)C7(C)C)cn6)CC5)CC4)nc3)cc(N3CCCC[C@H]3CCO)nc12 [Compound I-51] | – | > 2500
